Several values for one entry are separate records, joined by “and”; a condition that tells them apart may be missing. Equal entries are not always repeated. Where two headings read alike, the source gives them in different places.
Legend:
[1] = target: T1, human Nurr1 (hinge region and ligand binding domain) (Homo sapiens, UniProt P43354); test: Gal4-Nurr1 hybrid reporter gene assay; assay type: cell-based; settings: for max. activation: maximum effect vs. 0.1% DMSO control; for highest non-toxic concentration: Gal4-Nurr1 hybrid reporter gene assay
T1 construct: expressed in transfected cells; host or cells: HEK293T
T1 sequence (P43354 360-595 limits assumed): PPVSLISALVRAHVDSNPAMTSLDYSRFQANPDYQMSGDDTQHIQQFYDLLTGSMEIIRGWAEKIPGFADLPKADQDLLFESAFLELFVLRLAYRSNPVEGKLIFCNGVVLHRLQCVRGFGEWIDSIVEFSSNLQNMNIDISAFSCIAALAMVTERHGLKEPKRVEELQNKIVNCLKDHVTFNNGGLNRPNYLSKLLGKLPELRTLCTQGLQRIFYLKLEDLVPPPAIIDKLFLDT
Experimental: Nurr1 modulation was determined in a Gal4 hybrid reporter gene assay in HEK293T cells (German Collection of Microorganisms and Cell Culture GmbH, DSMZ) using pFR-Luc (Stratagene, La Jolla, CA, USA; reporter), pRL-SV40 (Promega, Madison, WI, USA; internal control) and pFA-CMV-hNurr1-LBD[14], coding for the hinge region and ligand binding domain of the canonical isoform of human Nurr1. […] After 24 h, the medium was changed to Opti-MEM without supplements, and cells were transiently transfected using Lipofectamine LTX reagent (Invitrogen, Carlsbad, CA, USA) according to the manufacturer’s protocol. Five hours after transfection, cells were incubated with the test compounds in Opti-MEM supplemented with penicillin (100 U/mL), streptomycin (100 μg/mL), and 0.1% DMSO for 16 h before luciferase activity was measured using the Dual-Glo Luciferase Assay System (Promega) according to the manufacturer’s protocol on a Tecan Spark luminometer (Tecan Deutschland GmbH, Crailsheim, Germany). Firefly luminescence was divided by Renilla luminescence and multiplied by 1000 resulting in relative light units (RLU) to normalize for transfection efficiency and cell growth. Fold activation was obtained by dividing the mean RLU of the test compound by the mean RLU of the untreated control. All samples were tested in at least three biologically independent experiments in duplicates. For dose-response curve fitting and calculation of EC50 values, the equation “[Agonist] vs. response -- Variable slope (four parameters)” was used in GraphPad Prism (version 7.00, GraphPad Software, La Jolla, CA, USA). Selectivity profiling was performed with identical procedures using pFA-CMV-Nur77-LBD[14], pFA-CMV-NOR-1-LBD[14], pFA-CMV-THRα-LBD[51], pFA-CMV-RARα-LBD[52], pFA-CMV-PPARα-LBD[53], pFA-CMV-PPARγ-LBD[53], pFA-CMV-PPARδ-LBD[53], pFA-CMV-LXRα-LBD[54], pFA-CMV-FXR-LBD[55] and pFA-CMV-hRXRα-LBD[56].

Microsomal stability = assay type: in vitro ADME, rat; settings: incubation of 36 with rat liver microsomes, listed as 36-NH2
Experimental: To determine microsomal stability, test compounds (10 μM) were incubated in 100 mM potassium phosphate buffer at pH 7.4 (total volume of 100 µL) containing 0.5 mg/mL male rat liver microsomes (Sprague-Dawley, no. M9066, Merck KGaA, Darmstadt) and 1 mM NADPH for 0, 15, 30, or 60 min. At the end of the incubation time, microsomal activity was terminated by the addition of 500 µL MeCN and subsequent centrifugation at 1700 g for 5 min. A reaction mixture containing heat-inactivated microsomes (95 °C, 10 min) was prepared as a control for each compound. 5 µL supernatant of each sample was analyzed and the remaining concentrations of the respective test compounds at each time point were determined by LC-MS/MS on an API-3200-QTrap (Sciex) with an Agilent Technologies 1100 series setup including a binary pump (G1311A), a degasser (G1322A), and a Shimadzu SIL 20 A HT autosampler under the control of Analyst 1.6 (Sciex). A XBridge BEH C18 (3.5 µm, 150 mm×3 mm, Waters, protected with a 0.5 µm frit) stationary phase was used in combination with a gradient method starting with 0.1% formic acid in water (A) and MeCN (B) as mobile phase (A:B = 80:20) for 6 min going to A: B = 50:50 after 8 min. 5 µL of supernatant diluted in mobile phase starting conditions was loaded onto the column, separated at a flow rate of 400 µL/min, and detected and quantified per Area of MRM (multiple reaction monitoring) with the following transitions: m/z 381.797/145.000 (34); m/z 395.125/158.200 (36); m/z 409.822/131.000 (41); m/z 407.838/171.100 (42).

Nurr1 LBD = target: T2, Nurr1 LBD (Homo sapiens, UniProt P43354); test: Isothermal titration calorimetry (ITC); assay type: binding; settings: 25 °C
T2 construct: Nurr1 LBD protein (5–30 µM, expressed as described previously[21]); made in house
T2 sequence (P43354 360-595 limits assumed): as above
Experimental: ITC experiments were conducted on an Affinity ITC instrument (TA Instruments, New Castle, DE) at 25 °C with a stirring rate of 75 rpm. Nurr1 LBD protein (5–30 µM, expressed as described previously[21]) in buffer (20 mM Tris pH 7.5, 100 mM NaCl, 5% glycerol) containing 1–4% DMSO was titrated with the test compounds (30–150 μM in the same buffer containing 1-4% DMSO) in 26 injections (1 × 1 µL, 25 × 3-4 μL) with an injection interval of 120-150 s. As control experiments, the test compounds were titrated to the buffer, and the buffer was titrated to the Nurr1 LBD protein under otherwise identical conditions. Results were analyzed using NanoAnalyze software (version 3.11.0, TA Instruments, New Castle, DE) with independent binding models.

[2] = Parallel artificial membrane permeability assay (PAMPA); assay type: in vitro ADME; settings: 500 µM donor, pH 7.4, 18 h
Experimental: Passive lipid membrane diffusion of test compounds was determined using Merck Millipore MultiScreen Filter Plates (0.45 μm pore diameter, hydrophobic PVDF). The filter inserts were coated with 1% L-α-phosphatidylcholine (Fluka Analytical) in n-dodecan. The test compounds were then added to the donor compartment at a final concentration of 500 µM in a phosphate buffer pH 7.4 containing 5% DMSO with a total volume of 150 µL. The acceptor compartment was filled with 300 µL PBS containing 5% DMSO. Additionally, three equilibrium samples were prepared by directly adding the donor solution to the acceptor compartment for the calculation of log Pe values. The filter plates were incubated for 18 h before the test compound concentrations in the acceptor compartments and in the equilibrium, samples were determined by UV absorbance at 320 nm (34), 360 nm (36), 310 nm (41), or 315 nm (42) with external calibration in a 96 well quartz plate on a SpectraMax M2e microplate reader (Molecular Devices). logPe values were calculated according to the formula published by Sugano and colleagues.

[3] = Gal4-Nurr1 hybrid reporter, HEK293T, mean ± SD, n ≥ 3
[4] = Gal4-Nurr1 hybrid reporter, HEK293T, mean ± SD, n ≥ 3, read-out: EC50(Nurr1)
[5] = Table 2, Nurr1 agonism, read-out: pEC50 (converted)

Compound	max. activation ([1]; mean ± SD, n ≥ 3)	EC50 [1, 4]	further results
Cc1nc2cccc(Cl)c2[nH]1 [Compound 7, 4-Chloro-2-methyl-benzimidazole]	–	–	EC50(Nurr1) [1, 3]: inactive (100 µM)
Cc1nc2c(Cl)cccn2c1NC(=O)c1ccc(-c2ccc(N)cc2)o1 [Compound 38]	<1.2-fold activation	–	AUC x10^5 (LC-MS peak area of 36 and its demethylated metabolites) (Microsomal stability; time 0 min): 0.0604 x10^5 and 0.0553 x10^5 and 0.0561 x10^5 and 0.0573 x10^5; AUC x10^5 (LC-MS peak area of 36 and its demethylated metabolites) (Microsomal stability; time 15 min): 1.99 x10^5 and 2.08 x10^5 and 1.81 x10^5 and 1.95 x10^5; AUC x10^5 (LC-MS peak area of 36 and its demethylated metabolites) (Microsomal stability; time 60 min): 4.34 x10^5 and 4.54 x10^5 and 4 x10^5 and 5.57 x10^5
CN(C)c1ccc(-c2ccc(C(=O)Nc3c(-c4ccc(Cl)c(Cl)c4)nc4c(Cl)cccn34)o2)cc1 [Compound 37, N-(8-Chloro-2-(3,4-dichlorophenyl)imidazo[1,2-a]pyridin-3-yl)-5-(4-(dimethylamino)phenyl)furan-2-carboxamidearboxamide]	1.53±0.04 fold	40 ± 10 nM	Kd (Nurr1 LBD): 80 nM
Cc1[nH]c2c(Cl)cccc2c1N [Compound 6, 7-chloro-2-methyl-1H-indol-3-amine]	–	–	EC50(Nurr1) [1, 3]: unstable
Cc1cc(N)c2cccc(Cl)c2n1 [Compound 3, 8-chloro-2-methylquinolin-4-amine, reference compound]	1.7 ± 0.1 fold	–	–
Cc1nc2c(Cl)cccn2c1NC(=O)c1ccc(-c2ccc(OC(F)(F)F)cc2)o1 [Compound 33]	2.0 ± 0.1 fold	800 ± 200 nM	–
CC(C)c1nc2c(Cl)cccn2c1N [Compound 14]	< 1.2-fold act.	–	–
Cc1ccc(-c2nc3c(Cl)cccn3c2N)cc1 [Compound 20]	2.0 ± 0.2 fold	12000 ± 2000 nM	–
Cc1nc2c(Cl)cccn2c1NC(=O)c1ccc(-c2ccc(Cl)cc2)o1 [Compound 26]	1.8 ± 0.1 fold	1600 ± 500 nM	Kd (Nurr1 LBD): 700 nM
Cc1nc2cc(Cl)ccn2c1N [Compound 9]	–	–	EC50(Nurr1) [1, 3]: inactive (100 µM); Kd (Nurr1 LBD) (Nurr1 LBD): weak binding
Nc1c(-c2ccc(Cl)cc2)nc2c(Cl)cccn12 [Compound 17]	1.7 ± 0.2 fold	15000 ± 3000 nM	–
Nc1c(-c2cccc(Cl)c2)nc2c(Cl)cccn12 [Compound 18]	1.7 ± 0.1 fold	9000 ± 3000 nM	–
Nc1c(-c2ccc(C(F)(F)F)cc2)nc2c(Cl)cccn12 [Compound 22]	< 1.2-fold act.	–	–
Cc1nc2c(Cl)cccn2c1NC(=O)c1ccc(-c2ccccc2)cc1 [Compound 30]	–	–	highest non-toxic concentration ([1]; HEK293T): inactive (10 µM^b); EC50(Nurr1) [1, 3]: inactive (10 µM^b)
CCN1CCN(c2cc(N3CCN(CC)CC3)nc(NCCNc3ccnc4cc(Cl)ccc34)n2)CC1 [Compound 1, reference compound]	–	–	EC50 [1, 5]: 20000 nM
CC(C)NCC(O)COc1cccc2ccccc12 (centres unmarked) [propranolol, reference compound]	–	–	logPe (PAMPA) [2]: -5.096 and -5.109 and -5.101 and -5.087 and -5.042 and -5.07
Cc1cccc(-c2nc3c(Cl)cccn3c2N)c1 [Compound 21]	< 1.2-fold act.	–	–

Compound	max. activation ([1]; mean ± SD, n ≥ 3)	EC50 [1, 4]	further results
Cc1ccc(-c2nc3c(Cl)cccn3c2N)cc1C [Compound 25]	1.6 ± 0.1 fold	14000 ± 2000 nM	–
Cc1nc2c(Cl)cccn2c1NC(=O)c1ccc(-c2ccccc2)s1 [Compound 28]	2.1 ± 0.1 fold	3200 ± 400 nM	–
Cc1nc2c(Cl)cccn2c1N [Compound 8, 8-Chloro-2-methylimidazo[1,2-a]pyridine-3-amine]	2.0 ± 0.1 fold	7000 ± 1000 nM	Kd (Nurr1 LBD): 2700 nM
Cc1nc2c(Cl)cccn2c1NC(=O)c1ccc(-c2ccc(C(F)(F)F)cc2)o1 [Compound 31]	1.8 ± 0.1 fold	1100 ± 300 nM	–
Nc1c(-c2ccc(Cl)c(Cl)c2)nc2c(Cl)cccn12 [Compound 24, 8-Chloro-2-(3,4-dichlorophenyl)imidazo[1,2-a]pyridine-3-amine]	1.8 fold and 1.8±0.1 fold	–	EC50 [1, 5]: 398 nM; Kd (Nurr1 LBD): 700 nM
Cc1nc2c(Cl)cccn2c1NC(=O)c1ccc(-c2ccc(N3CCOCC3)cc2)o1 [Compound 39]	–	–	highest non-toxic concentration ([1]; HEK293T): inactive (10 µM^c); EC50(Nurr1) [1, 3]: inactive (10 µM^c)
Nc1cnc2c(Cl)cccn12 [Compound 12, 3-Amino-8-chloroimidazo[1,2-a]pyridine]	–	–	Kd (Nurr1 LBD): 5100 nM
Cc1nc2c(Cl)cccn2c1NC(=O)c1ccc(-c2ccc(N3CCN(C)CC3)cc2)o1 [Compound 40]	–	–	highest non-toxic concentration ([1]; HEK293T): inactive (10 µM^d); EC50(Nurr1) [1, 3]: inactive (10 µM^d)
CNc1ccc(-c2ccc(C(=O)Nc3c(C)nc4c(Cl)cccn34)o2)cc1 [Compound 35]	1.8 ± 0.1 fold	300 ± 20 nM	–
Nc1c(-c2ccccc2Cl)nc2c(Cl)cccn12 [Compound 19]	–	–	EC50(Nurr1) [1, 3]: inactive (100 µM)
Nc1c(-c2ccco2)nc2c(Cl)cccn12 [Compound 16]	< 1.2-fold act.	–	–
Nc1c(-c2cccc(C(F)(F)F)c2)nc2c(Cl)cccn12 [Compound 23]	< 1.2-fold act.	–	–
Nc1c(-c2ccccc2)nc2c(Cl)cccn12 [Compound 15]	1.4 ± 0.1 fold	4000 ± 2000 nM	–
Cc1ccc(-c2ccc(C(=O)Nc3c(C)nc4c(Cl)cccn34)o2)cc1 [Compound 32]	2.0 ± 0.2 fold	130 ± 20 nM	–
O=C(Nc1ccnc2cc(Cl)ccc12)c1ccc(-c2ccc(Cl)cc2)o1 [Compound 4, reference compound]	–	–	EC50 [1, 5]: 15800 nM
Cc1nc2c(Cl)cccn2c1NC(=O)c1ccc(-c2ccccc2)o1 [Compound 27]	2.1 ± 0.1 fold	4000 ± 1000 nM	–

Source: article PMC11217349, “Development of Nurr1 agonists from amodiaquine by scaffold hopping and fragment growing” (Communications Chemistry, 2024)
